Experimental data as given in patent US8575216B2, “Method of treatment for acute myelogenous leukemia” (priority 2009, dated 2013).
Several values for one entry are separate records, joined by “and”; a condition that tells them apart may be missing. Equal entries are not always repeated. Entries after “also recorded” stand apart in the source; their conditions may differ. Where two headings read alike, the source gives them in different places.

Assays:
[1] = AML patients, 48 h treatment with induction chemotherapy
Text: Clinical trial. […] The study was an open-label trial. […] Inclusion criteria included non-pregnant patients with an Eastern Cooperative Oncology Group performance status of 0 to 3, a bilirubin level more than twice the upper limits of normal, aspartate aminotransferase/alanine aminotransferase level more than thrice the upper limits of normal, and creatinine levels more than 1.5 times the upper limits of normal. Patients with current or recent gastrointestinal bleeding were excluded. […] Dexamethasone was administered at a dose of 10 mg p.o. every 6 h beginning at hour 0 and continuing until hour 48. […] Induction chemotherapy consisted of 3 days of idarubicin in combination with a 7-day continuous infusion of cytarabine. Some patients over the age of 60 received a reduced dose of idarubicin and the addition of etoposide (32).

primary AML cells [2] = system: primary AML cells
ERK phosphorylation = assay: Ex vivo ERK phosphorylation in clinical AML samples (Western analysis); format: cell-based, human
[3] = 5 patients, 0.125 mg/m^2, cited from earlier work
[4] = CINJ TPA Phase 1 study, relapsed/refractory malignancies: clinical response and toxicity; format: in vivo, human
Text: 12-O-tetradecanoylphorbol-13-acetate (TPA), an activator of protein kinase C, is being developed as a therapeutic agent for patients with acute myelogenous leukemia (AML) because of its profound effects on intracellular signaling pathways, it's capacity to induce differentiation and/or apoptosis in cell lines, and preliminary clinical data from China indicating effectiveness in myeloid malignancies (Han Z T, Zhu X X, Yang R Y, Sun J Z, Tian G F, Liu X J et al. Effect of intravenous infusions of 12-O-tetradecanoylphorbol-13-acetate (TPA) in patients with myelocytic leukemia: preliminary studies on therapeutic efficacy and toxicity. Proc Natl Acad Sci USA 1998; 95(9):5357-5361). A recently completed Investigator-initiated, Phase I study at The Cancer Institute of New Jersey/Robert Wood Johnson Medical School/UMDNJ represented the only FDA-approved study to administer TPA to patients in the United States and provided a unique opportunity to study the in vivo effects of TPA in patients with relapsed/refractory malignancies for which no standard therapies exist. Thus far clinical evaluation of TPA as a single agent has documented clinical safety when administered on days 1-5 and 8-12.
The initial CINJ TPA Phase 1 study enrolled 35 patients [23 with relapsed/refractory AML, 2 with other myeloid malignancies (CML-blast crisis, myelodysplasia with excess blasts), 3 with Hodgkin's Disease, 3 with non-Hodgkin's lymphoma and 4 with solid tumors]. The majority of patients had relapsed/refractory AML. Our clinical results include one AML patient with stable disease for >5 months, who received 8 TPA infusions. In a second AML patient, a pronounced (5-fold) decline in the number of circulating blasts was seen following TPA administration. This decline in leukemic blasts persisted for 4 weeks; the patient eventually died from a fungal infection.

primary AML cells [5] = assay: Ex vivo cytotoxicity on primary AML cells (cell viability and apoptosis assays)

SMILES | Unusual untoward effects attributable to the agent [1] | Effect on TPA cytotoxicity (primary AML cells [2]) | ERK phosphorylation (ERK phosphorylation; all primary cultures analyzed by Western analysis, by 1 hour in culture) | TPA concentration (as low as) giving detectable increases in ERK phosphorylation (ERK phosphorylation; ex vivo exposure of clinical AML samples) [nM] | TPA level in blood, average ([3]; immediately post-infusion) | TPA level in blood, average ([3]; one hour post infusion) | DLT's reported ([4]; CINJ TPA study) | Patients with grade III non-hematologic dose limiting toxicities (DLT) ([4]; last cohort, 0.188 mg/m^2 d1-5, 8-12) | Maximum tolerated TPA dose as a single agent ([4]; on d1-5 and 8-12) [mg/m^2/d] | Duration of stable disease ([4]; one AML patient, 8 TPA infusions) [months] | Clinical response of chest wall mass ([4]; patient with relapsed and refractory Hodgkin's disease) | Persistence of decline in leukemic blasts ([4]; second AML patient) [weeks] | Decline in the number of circulating blasts ([4]; second AML patient, following TPA administration) [fold] | Cytotoxic effects by TPA concentration (primary AML cells [5]; clinical AML samples ex vivo, 32 nM vs 3.2 nM, unpublished observations) | Cytotoxic effects, cell viability and apoptosis assays (primary AML cells [5]; small panel of clinical AML samples, subset of AML cases)
C[C@@H]1C[C@H]2[C@@H]3CCC4=CC(=O)C=C[C@]4(C)[C@@]3(F)[C@@H](O)C[C@]2(C)[C@@]1(O)C(=O)CO [dexamethasone] | did not detect any unusual untoward effects; also recorded: did not, detect any unusual untoward elects | enhance TPA cytotoxicity |  |  |  |  |  |  |  |  |  |  |  |  | 
CCCCCCCCCCCCCC(=O)O[C@@H]1[C@@H](C)[C@@]2(O)[C@@H](C=C(CO)C[C@]3(O)C(=O)C(C)=C[C@@H]23)[C@@H]2C(C)(C)[C@]12OC(C)=O [TPA, 12-O-tetradecanoylphorbol-13-acetate] |  |  | strongly induced | 0.032 | 1.75 ng/ml blood and 2.8 nM | 0.93 ng/ml blood and 1.5 nM | grade 3 dyspnea, grade 3 hypoxia and a grade 3 episode of hypotension | 2 out of 3 | 0.125 | > 5 | partial remission | 4 | 5 | 32 nM is more cytotoxic than 3.2 nM | direct cytotoxic effects
